Test results reported in patent publication US11052154B2, “Ras protein degradation inducing molecule and pharmaceutical composition” (Tokyo University of Science Foundation, priority 2016, dated 2021).

Molecular target: T1, endogenous wild-type H-Ras protein (Mus musculus, UniProt Q61411)
T1 construct: an endogenous wild-type K-Ras protein and wild-type H-Ras protein; from tissue; host or cells: mouse pancreas and colon
Test: Degradation of endogenous wild-type H-Ras protein in mouse pancreas and colorectal tissue, Western blot analysis
Type: in vivo
Conditions: C57BL/6J mice, intraperitoneal, 48 hours, FIG. 8
Experimental: In Example 9, in a mouse individual to which TUS-007 had been administered, the degradation (knockdown) of an endogenous wild-type K-Ras protein and wild-type H-Ras protein was evaluated by Western blot analysis.
TUS-007 was dissolved in DMSO, and then dissolved in corn oil so that the concentration of DMSO was 10 vol %, and then intraperitoneally administered to C57BL/6J wild-type mice (8 to 9 weeks old, male) (CLEA Japan, Inc.) in an amount of 40 mg/kg body weight or 80 mg/kg body weight (n=3 to 4). Furthermore, in addition to a group in which TUS-007 was administered, a group in which Ras-SOS had been administered in a dose of 80 mg/kg body weight was prepared. As a control, an injection carrier (corn oil containing 10 vol % DMSO) was used. The mice were kept under an environment of ad libitum access to food and water. The mice were dissected under deep anesthesia 48 hours after administration. The pancreas and colon were excised, and flash frozen in liquid nitrogen.
The frozen pancreas and colon were each triturated, and then TKM tissue lysis buffer (50 mM triethanolamine (pH 7.8), 50 mM KCl, 5 mM MgCl2, 0.25 M sucrose, 1 mM PMSF, Protein Inhibitors Cocktail-EDTA free (Nacalai Tesque, Inc.), 1 mM DTT, and a recombinant RNase inhibitor (0.2 U/μL, Takara Bio) were added, and subjected to centrifugation (at 13800 rpm×30 minutes, 4° C.), and the supernatants (pancreatic tissue extract and colorectal tissue extract) were collected. The concentration of the extracted proteins was quantified with a spectrophotometer.
Each tissue extract collected was subjected to Western blot analysis. […]
After electrophoresis, proteins were transferred to a PVDF membrane (Immobion™-P, Millipore) under conditions of 200 mA and 90 minutes using a tank-type blotting device and a transfer buffer (25 mM Tris-HCl, 195 mM glycine, 0.01% SDS, 15% methanol). […] Subsequently, the membrane was treated with a chemiluminescence reagent Immobilon™ Western (Millipore), and then chemiluminescence was detected using a lumino image analyzer LAS-3000 (FUJIFILM Corporation).

T1 sequence (Q61411 whole entry): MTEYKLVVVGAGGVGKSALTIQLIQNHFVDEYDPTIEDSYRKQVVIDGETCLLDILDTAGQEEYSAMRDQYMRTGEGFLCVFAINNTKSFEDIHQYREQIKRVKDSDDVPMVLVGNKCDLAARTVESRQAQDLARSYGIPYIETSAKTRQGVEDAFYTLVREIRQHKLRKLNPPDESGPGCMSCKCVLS

CCC(C)[C@H](NC(=O)CCCCCCNC(=O)[C@H](CC(C)C)NC(=O)CNC(=O)c1cc(Cl)ccc1Cl)C(=O)Nc1ccc2[nH]c(Cc3c[nH]c4ccccc34)nc2c1 (stereo in doubt) [TUS-007]
amount of the endogenous wild-type H-Ras protein in the pancreatic tissue (Western blot) (40 or 80 mg/kg, pancreatic tissue): remarkably reduced in the pancreatic tissue | amount of the endogenous wild-type H-Ras protein in mouse tissues (Western blot) (TUS-007 40 or 80 mg/kg, Ras-SOS 80 mg/kg, pancreas and colon): reduced in a concentration-dependent manner
